Key:
[1] = target: Beta-2 adrenergic receptor (Homo sapiens, UniProt P07550)
Vasopressin V2 receptor = Vasopressin V2 receptor (Homo sapiens, UniProt P30518)
[2] = target: T1, Cholecystokinin receptor type A (Homo sapiens, UniProt P32238)
T1 sequence (P32238 whole entry): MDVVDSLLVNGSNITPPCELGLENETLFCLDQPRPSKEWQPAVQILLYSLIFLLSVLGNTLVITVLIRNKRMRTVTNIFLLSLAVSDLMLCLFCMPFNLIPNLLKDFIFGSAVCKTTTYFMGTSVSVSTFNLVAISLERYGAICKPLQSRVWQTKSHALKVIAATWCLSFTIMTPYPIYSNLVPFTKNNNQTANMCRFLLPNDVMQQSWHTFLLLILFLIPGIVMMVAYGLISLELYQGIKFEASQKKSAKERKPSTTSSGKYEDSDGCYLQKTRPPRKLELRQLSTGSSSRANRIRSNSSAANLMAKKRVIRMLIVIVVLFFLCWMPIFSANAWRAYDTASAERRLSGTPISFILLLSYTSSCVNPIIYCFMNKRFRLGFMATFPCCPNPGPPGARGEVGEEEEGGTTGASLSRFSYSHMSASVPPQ

[3] = target: Muscarinic acetylcholine receptor M3 (Homo sapiens, UniProt P20309)
Sequence of Muscarinic acetylcholine receptor M3 (P20309 whole entry): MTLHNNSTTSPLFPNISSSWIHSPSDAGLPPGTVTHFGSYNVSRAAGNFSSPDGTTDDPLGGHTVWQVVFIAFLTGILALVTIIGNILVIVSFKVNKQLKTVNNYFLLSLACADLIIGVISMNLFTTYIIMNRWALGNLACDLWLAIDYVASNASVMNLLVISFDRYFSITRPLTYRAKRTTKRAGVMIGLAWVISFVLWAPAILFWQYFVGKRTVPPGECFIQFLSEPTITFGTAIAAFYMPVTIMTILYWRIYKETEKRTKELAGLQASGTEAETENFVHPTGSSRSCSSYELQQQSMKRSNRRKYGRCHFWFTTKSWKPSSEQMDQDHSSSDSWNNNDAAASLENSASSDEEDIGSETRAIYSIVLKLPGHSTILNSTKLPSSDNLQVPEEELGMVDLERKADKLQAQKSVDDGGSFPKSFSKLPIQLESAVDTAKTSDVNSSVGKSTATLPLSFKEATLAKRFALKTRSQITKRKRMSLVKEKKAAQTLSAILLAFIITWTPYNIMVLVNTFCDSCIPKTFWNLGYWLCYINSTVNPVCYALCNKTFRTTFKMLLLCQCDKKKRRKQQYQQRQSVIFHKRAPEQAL

[4] = target: Neuronal acetylcholine receptor subunit alpha-4 (Homo sapiens, UniProt P43681)
Sequence of Neuronal acetylcholine receptor subunit alpha-4 (P43681 whole entry): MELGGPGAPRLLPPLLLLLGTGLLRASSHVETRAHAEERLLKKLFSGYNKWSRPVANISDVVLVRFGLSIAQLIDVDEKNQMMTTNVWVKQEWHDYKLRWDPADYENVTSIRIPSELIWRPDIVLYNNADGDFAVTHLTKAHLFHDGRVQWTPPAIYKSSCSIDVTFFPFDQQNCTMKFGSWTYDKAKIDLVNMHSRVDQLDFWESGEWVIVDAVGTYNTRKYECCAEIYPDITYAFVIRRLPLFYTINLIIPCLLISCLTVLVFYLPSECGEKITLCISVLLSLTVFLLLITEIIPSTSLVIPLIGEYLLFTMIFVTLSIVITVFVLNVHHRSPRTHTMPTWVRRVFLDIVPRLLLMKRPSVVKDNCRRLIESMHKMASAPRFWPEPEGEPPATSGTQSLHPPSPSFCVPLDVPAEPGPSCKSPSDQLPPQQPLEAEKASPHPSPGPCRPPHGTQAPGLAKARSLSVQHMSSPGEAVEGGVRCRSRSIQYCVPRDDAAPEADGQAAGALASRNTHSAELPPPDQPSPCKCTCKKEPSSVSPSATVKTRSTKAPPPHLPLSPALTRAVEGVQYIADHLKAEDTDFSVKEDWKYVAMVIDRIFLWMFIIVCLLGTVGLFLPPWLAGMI

[5] = target: Growth hormone secretagogue receptor type 1 (Homo sapiens, UniProt Q92847)
Sequence of Growth hormone secretagogue receptor type 1 (Q92847 whole entry): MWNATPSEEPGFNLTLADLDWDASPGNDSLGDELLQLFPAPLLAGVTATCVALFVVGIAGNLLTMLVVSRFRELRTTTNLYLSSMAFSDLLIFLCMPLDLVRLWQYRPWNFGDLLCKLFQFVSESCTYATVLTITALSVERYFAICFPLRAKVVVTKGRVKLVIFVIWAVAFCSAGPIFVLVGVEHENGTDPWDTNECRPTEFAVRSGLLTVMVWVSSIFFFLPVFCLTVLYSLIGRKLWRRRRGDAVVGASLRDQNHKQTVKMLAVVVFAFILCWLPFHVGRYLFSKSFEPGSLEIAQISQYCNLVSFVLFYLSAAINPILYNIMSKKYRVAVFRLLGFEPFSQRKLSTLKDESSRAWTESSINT

[6] = target: 5-hydroxytryptamine receptor 2A (Homo sapiens, UniProt P28223); assay type: functional, cell-based
Sequence of 5-hydroxytryptamine receptor 2A (P28223 whole entry): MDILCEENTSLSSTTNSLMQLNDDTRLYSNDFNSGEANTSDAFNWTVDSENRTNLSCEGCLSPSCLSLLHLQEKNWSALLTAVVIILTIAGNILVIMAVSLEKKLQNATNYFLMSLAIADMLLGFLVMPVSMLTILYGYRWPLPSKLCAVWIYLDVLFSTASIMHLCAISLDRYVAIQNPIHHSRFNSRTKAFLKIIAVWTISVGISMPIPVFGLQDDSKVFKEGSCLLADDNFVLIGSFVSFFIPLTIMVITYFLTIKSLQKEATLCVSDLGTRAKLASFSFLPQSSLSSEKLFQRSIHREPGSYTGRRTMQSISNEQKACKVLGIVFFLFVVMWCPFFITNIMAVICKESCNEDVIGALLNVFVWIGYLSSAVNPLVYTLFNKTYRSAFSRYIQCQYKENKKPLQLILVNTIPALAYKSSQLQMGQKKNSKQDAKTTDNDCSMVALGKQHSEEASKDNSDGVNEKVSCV

Motilin receptor = Motilin receptor (Homo sapiens, UniProt O43193)
Sequence of Motilin receptor (O43193 whole entry): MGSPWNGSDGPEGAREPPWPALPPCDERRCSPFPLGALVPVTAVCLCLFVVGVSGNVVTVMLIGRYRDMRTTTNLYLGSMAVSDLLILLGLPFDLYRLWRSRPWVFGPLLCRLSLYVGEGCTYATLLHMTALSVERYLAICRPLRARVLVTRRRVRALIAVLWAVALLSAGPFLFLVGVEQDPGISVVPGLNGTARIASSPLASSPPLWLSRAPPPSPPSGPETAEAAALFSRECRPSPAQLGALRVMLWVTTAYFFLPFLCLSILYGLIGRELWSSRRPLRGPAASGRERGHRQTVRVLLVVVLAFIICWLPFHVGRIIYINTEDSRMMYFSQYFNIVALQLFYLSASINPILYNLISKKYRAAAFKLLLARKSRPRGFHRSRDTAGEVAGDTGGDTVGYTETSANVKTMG

Mu-type opioid receptor [7] = target: T2, Mu-type opioid receptor (Homo sapiens, UniProt P35372); test: biochemical; assay type: functional
T2 sequence (P35372 whole entry): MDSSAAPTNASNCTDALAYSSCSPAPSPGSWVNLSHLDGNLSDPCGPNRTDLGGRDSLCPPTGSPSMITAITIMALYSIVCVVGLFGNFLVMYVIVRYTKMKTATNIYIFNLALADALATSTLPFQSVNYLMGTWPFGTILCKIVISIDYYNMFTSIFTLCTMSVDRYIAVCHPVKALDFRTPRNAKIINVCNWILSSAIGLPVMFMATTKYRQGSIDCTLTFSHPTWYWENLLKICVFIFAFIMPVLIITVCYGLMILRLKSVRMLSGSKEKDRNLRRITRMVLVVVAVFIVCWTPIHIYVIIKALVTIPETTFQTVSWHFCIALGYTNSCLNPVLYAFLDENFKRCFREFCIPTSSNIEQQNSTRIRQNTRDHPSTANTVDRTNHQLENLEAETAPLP

Progesterone receptor = target: T3, Progesterone receptor (Homo sapiens, UniProt P06401); assay type: functional
T3 sequence (P06401 whole entry): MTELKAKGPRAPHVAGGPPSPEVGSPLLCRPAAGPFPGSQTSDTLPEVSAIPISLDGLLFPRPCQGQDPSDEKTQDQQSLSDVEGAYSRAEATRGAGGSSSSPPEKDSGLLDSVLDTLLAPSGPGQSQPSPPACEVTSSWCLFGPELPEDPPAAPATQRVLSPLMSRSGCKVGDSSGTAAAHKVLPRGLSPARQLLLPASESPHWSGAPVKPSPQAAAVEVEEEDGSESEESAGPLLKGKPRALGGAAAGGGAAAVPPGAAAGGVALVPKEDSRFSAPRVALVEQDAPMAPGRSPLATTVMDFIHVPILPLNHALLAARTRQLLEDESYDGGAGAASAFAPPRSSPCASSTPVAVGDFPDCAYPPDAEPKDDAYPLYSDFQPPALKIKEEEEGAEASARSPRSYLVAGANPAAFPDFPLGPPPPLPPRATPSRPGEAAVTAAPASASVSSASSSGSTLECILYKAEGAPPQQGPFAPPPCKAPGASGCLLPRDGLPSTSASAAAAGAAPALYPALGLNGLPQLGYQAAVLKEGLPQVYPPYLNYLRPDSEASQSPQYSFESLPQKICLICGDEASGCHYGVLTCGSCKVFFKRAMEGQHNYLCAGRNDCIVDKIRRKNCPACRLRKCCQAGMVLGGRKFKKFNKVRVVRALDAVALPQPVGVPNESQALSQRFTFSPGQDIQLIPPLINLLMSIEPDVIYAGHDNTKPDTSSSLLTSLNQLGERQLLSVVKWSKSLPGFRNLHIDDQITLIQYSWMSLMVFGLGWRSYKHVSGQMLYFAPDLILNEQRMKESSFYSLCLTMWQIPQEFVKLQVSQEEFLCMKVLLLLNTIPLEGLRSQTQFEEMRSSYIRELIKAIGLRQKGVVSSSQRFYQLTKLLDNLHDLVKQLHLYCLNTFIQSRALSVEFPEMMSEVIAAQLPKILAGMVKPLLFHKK

Histamine H3 receptor = Histamine H3 receptor (Homo sapiens, UniProt Q9Y5N1)
Sequence of Histamine H3 receptor (Q9Y5N1 whole entry): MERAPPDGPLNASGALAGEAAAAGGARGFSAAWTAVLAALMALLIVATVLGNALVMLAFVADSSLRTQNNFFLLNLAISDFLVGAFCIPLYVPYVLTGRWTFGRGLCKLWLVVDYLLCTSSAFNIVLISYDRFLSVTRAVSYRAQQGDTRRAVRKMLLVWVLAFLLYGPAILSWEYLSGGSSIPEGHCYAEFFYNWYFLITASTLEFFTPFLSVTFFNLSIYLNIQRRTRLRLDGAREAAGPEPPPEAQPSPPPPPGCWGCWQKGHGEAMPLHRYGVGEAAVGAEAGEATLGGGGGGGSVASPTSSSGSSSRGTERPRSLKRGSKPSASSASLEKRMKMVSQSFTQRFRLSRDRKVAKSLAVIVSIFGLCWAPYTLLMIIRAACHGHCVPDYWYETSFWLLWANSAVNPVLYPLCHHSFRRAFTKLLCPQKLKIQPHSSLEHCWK

[8] = target: T4, Alpha-1A adrenergic receptor (Homo sapiens, UniProt P35348)
T4 sequence (P35348 whole entry): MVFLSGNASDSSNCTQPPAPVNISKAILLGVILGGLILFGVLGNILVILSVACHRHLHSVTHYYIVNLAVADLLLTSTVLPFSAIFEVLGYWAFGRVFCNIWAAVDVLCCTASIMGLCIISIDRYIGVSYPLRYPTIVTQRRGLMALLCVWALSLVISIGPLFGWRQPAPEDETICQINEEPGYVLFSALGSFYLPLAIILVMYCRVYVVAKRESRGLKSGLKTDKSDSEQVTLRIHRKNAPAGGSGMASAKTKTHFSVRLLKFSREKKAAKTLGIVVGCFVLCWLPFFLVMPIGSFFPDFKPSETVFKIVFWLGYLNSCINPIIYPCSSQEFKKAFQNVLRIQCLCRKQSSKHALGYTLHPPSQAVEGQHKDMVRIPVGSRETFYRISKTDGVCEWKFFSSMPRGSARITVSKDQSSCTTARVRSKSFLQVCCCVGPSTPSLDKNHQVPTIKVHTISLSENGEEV

Cannabinoid receptor 1 = Cannabinoid receptor 1 (Homo sapiens, UniProt P21554)
Sequence of Cannabinoid receptor 1 (P21554 whole entry): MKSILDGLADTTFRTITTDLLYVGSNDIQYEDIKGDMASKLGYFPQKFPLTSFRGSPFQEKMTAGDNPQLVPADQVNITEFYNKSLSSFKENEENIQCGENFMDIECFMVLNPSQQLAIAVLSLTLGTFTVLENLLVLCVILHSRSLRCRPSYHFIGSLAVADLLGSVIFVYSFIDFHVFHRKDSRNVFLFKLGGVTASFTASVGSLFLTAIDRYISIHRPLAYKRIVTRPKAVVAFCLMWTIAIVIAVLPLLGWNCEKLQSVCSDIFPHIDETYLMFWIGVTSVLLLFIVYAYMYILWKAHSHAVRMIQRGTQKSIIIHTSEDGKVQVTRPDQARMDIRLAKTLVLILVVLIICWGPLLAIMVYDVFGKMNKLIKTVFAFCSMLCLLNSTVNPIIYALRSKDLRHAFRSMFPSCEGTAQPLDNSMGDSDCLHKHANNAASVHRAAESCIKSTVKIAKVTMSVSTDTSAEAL

Melanocortin receptor 4 = Melanocortin receptor 4 (Homo sapiens, UniProt P32245)
Sequence of Melanocortin receptor 4 (P32245 whole entry): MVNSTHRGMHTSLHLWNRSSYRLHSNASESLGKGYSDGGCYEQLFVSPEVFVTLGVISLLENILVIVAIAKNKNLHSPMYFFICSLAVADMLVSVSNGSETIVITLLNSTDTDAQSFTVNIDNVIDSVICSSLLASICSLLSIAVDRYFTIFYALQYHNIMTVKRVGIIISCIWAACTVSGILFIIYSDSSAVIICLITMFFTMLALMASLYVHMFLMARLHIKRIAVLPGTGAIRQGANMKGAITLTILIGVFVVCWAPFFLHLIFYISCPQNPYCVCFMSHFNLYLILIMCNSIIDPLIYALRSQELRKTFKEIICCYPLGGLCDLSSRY

Mu-type opioid receptor [9] = target: T2, Mu-type opioid receptor
Note: assay procedure not described here.

Sequence of Vasopressin V2 receptor (P30518 whole entry): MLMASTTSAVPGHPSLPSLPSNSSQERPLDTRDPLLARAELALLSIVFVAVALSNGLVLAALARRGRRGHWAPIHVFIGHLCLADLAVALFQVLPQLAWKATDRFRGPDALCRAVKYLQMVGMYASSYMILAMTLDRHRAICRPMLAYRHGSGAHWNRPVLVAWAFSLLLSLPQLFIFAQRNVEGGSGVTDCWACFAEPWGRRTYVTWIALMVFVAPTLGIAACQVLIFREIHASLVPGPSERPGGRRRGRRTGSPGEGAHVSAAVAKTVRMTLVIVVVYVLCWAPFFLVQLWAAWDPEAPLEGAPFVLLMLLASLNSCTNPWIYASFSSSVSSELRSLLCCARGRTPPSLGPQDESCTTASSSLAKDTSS
Sequence of Beta-2 adrenergic receptor (P07550 whole entry): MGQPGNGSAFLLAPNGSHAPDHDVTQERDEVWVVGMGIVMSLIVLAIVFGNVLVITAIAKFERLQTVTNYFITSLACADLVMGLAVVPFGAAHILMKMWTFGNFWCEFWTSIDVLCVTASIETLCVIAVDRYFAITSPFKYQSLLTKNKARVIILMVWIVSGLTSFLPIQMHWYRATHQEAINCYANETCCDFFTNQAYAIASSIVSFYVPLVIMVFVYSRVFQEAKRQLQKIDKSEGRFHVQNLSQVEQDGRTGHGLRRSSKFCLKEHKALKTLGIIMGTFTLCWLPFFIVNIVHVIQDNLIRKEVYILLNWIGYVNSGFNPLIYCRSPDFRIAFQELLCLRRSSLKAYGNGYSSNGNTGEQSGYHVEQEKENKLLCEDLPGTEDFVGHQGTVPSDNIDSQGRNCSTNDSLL

Structure (SMILES) | AC50 [1] [µM] | AC50 (Vasopressin V2 receptor) [µM] | AC50 [2] [µM] | AC50 [3] [µM] | AC50 [4] [µM] | AC50 [5] [µM] | AC50 [6] [µM] | AC50 (Motilin receptor) [µM] | AC50 (Mu-type opioid receptor [7]) [µM] | AC50 (Progesterone receptor) [µM] | AC50 (Histamine H3 receptor) [µM] | AC50 [8] [µM] | AC50 (Cannabinoid receptor 1) [µM] | AC50 (Melanocortin receptor 4) [µM] | AC50 (Mu-type opioid receptor [9]) [µM]
NS(=O)(=O)c1cc(-c2nnn[nH]2)c(NCc2cccs2)cc1Cl [AZOSEMIDE] | > 30 | > 30 | > 30 | > 30 | > 30 | > 30 | > 30 | > 30 | > 30 | > 30 | > 30 | – | – | – | –
C[N+](C)(C)CC(=O)O [BETAINE] | > 30 | > 30 | > 30 | > 30 | > 30 | > 30 | > 30 | > 30 | > 30 | > 30 | > 30 | – | – | – | –
CCCC(=O)N1CCCN(c2nc(N)c3cc(OC)c(OC)cc3n2)CC1 [BUNAZOSIN] | – | > 30 | > 30 | > 30 | > 30 | > 30 | > 30 | > 30 | > 30 | > 30 | > 30 | – | – | – | –
C[N+](C)(C)CCOC(N)=O [CARBAMOYLCHOLINE] | > 10 | > 10 | > 10 | – | > 10 | > 10 | – | > 10 | > 30 | > 10 | – | > 10 | > 10 | > 10 | > 30
N[C@@H](CSCC(=O)O)C(=O)O [CARBOCYSTEINE] | > 30 | > 30 | > 30 | > 30 | > 30 | > 30 | > 30 | > 30 | > 30 | > 30 | > 30 | – | – | – | –
CC(C)(N)Cc1ccc(Cl)cc1 [CHLORPHENTERMINE] | > 10 | > 30 | > 30 | > 30 | 10 | > 30 | > 30 | > 10 | – | – | > 10 | > 10 | > 10 | > 30 | > 30
CN(C)[C@@H]1C(O)=C(C(N)=O)C(=O)[C@@]2(O)C(O)=C3C(=O)c4c(O)ccc(Cl)c4[C@@H](O)[C@H]3C[C@@H]12 [DEMECLOCYCLINE] | > 10 | > 10 | > 10 | > 30 | > 10 | > 10 | > 10 | > 10 | – | – | – | > 10 | > 10 | > 10 | > 30
NS(=O)(=O)c1cc(Cl)c(Cl)c(S(N)(=O)=O)c1 [DICHLORPHENAMIDE] | > 10 | > 10 | > 10 | > 30 | > 10 | > 10 | > 10 | > 10 | – | > 10 | > 10 | > 10 | > 10 | > 10 | > 30
C=C1C[C@@H]2[C@H](CC[C@]3(C)C(=O)CC[C@@H]23)[C@@]2(C)C=CC(=O)C=C12 [EXEMESTANE] | > 10 | > 30 | > 30 | > 30 | > 10 | > 30 | > 30 | > 10 | – | – | > 10 | > 10 | > 10 | > 30 | > 30
CC(C(O)c1ccc(O)cc1)N1CCC(Cc2ccccc2)CC1 (configuration not stated) [IFENPRODIL] | > 30 | > 30 | > 30 | > 30 | > 30 | > 30 | > 30 | > 30 | > 30 | > 30 | > 30 | – | – | – | –
CS(=O)(=O)Nc1cc2occ(NC=O)c(=O)c2cc1Oc1ccccc1 [IGURATIMOD] | – | – | – | – | – | – | – | – | – | > 30 | – | – | – | – | –
CC(=O)N(CC(O)CO)c1c(I)c(C(=O)NCC(O)CO)c(I)c(C(=O)NCC(O)CO)c1I (configuration not stated) [IOHEXOL] | > 30 | > 30 | > 30 | > 30 | > 10 | > 30 | > 30 | > 10 | – | – | > 10 | > 10 | – | > 30 | > 30
CN(CCCN1c2ccccc2CCc2ccccc21)CC(=O)c1ccc(Cl)cc1 [LOFEPRAMINE] | 20 | > 30 | > 30 | – | > 30 | 25 | > 30 | > 30 | > 30 | – | > 30 | – | 6.9 | – | –
CN(C/C=C/c1ccccc1)Cc1cccc2ccccc12 [NAFTIFINE] | > 30 | > 30 | > 30 | > 30 | > 10 | > 30 | – | > 10 | – | > 30 | > 10 | 2.15 | 9.87 | > 30 | > 30
CC(C)NCC1CCc2cc(CO)c([N+](=O)[O-])cc2N1 (configuration not stated) [OXAMNIQUINE] | > 10 | > 10 | > 10 | > 30 | > 10 | > 10 | > 30 | > 10 | – | > 10 | > 10 | > 10 | > 10 | > 10 | > 30
CN(C)CCCN1c2ccccc2Sc2ccccc21 [PROMAZINE] | 7.6 | > 30 | > 30 | – | – | > 30 | – | > 10 | 2.9 | – | > 10 | 0.0171 | > 10 | > 30 | 6.5
O=P(O)(O)C(O)(Cc1cccnc1)P(=O)(O)O [RISEDRONIC ACID] | > 30 | > 30 | > 30 | – | > 30 | > 30 | – | > 30 | > 30 | > 30 | > 30 | > 10 | > 30 | > 30 | > 30
O=C1CCC(N2C(=O)c3ccccc3C2=O)C(=O)N1 (configuration not stated) [THALIDOMIDE] | > 10 | > 30 | > 30 | – | – | > 30 | – | > 10 | – | – | > 10 | > 10 | > 10 | > 30 | > 30

From ChEMBL document CHEMBL5291721, “A preclinical secondary pharmacology resource illuminates target-adverse drug reaction associations of marketed drugs” (Nat Commun, 2023)
